Results from patent publication US4443436A, “C-20-Modified macrolide derivatives of the macrolide antibiotics tylosin, desmycosin, macrocin, and lactenocin” (Eli Lilly and Company, priority 1982, dated 1984).
In brackets after ≈: the same amount, converted by molar mass.

Key:
[1] = tested on: Staphylococcus aureus X1.1; test: MIC, standard agar-dilution assay, Staphylococcus aureus X1.1; assay type: cell-based; details: Staphylococcus aureus X1.1; agar dilution
[2] = tested on: Staphylococcus aureus V41; test: MIC, standard agar-dilution assay, Staphylococcus aureus V41; assay type: cell-based; details: Staphylococcus aureus V41; penicillin-resistant strain; agar dilution
[3] = tested on: Staphylococcus aureus X400; test: MIC, standard agar-dilution assay, Staphylococcus aureus X400; assay type: cell-based; details: Staphylococcus aureus X400; methicillin-resistant strain; agar dilution
[4] = tested on: Staphylococcus aureus S13E; test: MIC, standard agar-dilution assay, Staphylococcus aureus S13E; assay type: cell-based; details: Staphylococcus aureus S13E; agar dilution
[5] = tested on: Staphylococcus epidermidis EPI1; test: MIC, standard agar-dilution assay, Staphylococcus epidermidis EPI1; assay type: cell-based; details: Staphylococcus epidermidis EPI1; agar dilution
[6] = tested on: Staphylococcus epidermidis EPI2; test: MIC, standard agar-dilution assay, Staphylococcus epidermidis EPI2; assay type: cell-based; details: Staphylococcus epidermidis EPI2; agar dilution
[7] = tested on: Streptococcus pyogenes C203; test: MIC, standard agar-dilution assay, Streptococcus pyogenes C203; assay type: cell-based; details: Streptococcus pyogenes C203; agar dilution
[8] = tested on: Streptococcus pneumoniae Park I; test: microbe, parasite or virus in culture; assay type: cell-based; details: Streptococcus pneumoniae Park I; agar dilution
[9] = tested on: Streptococcus Group D X66; test: MIC, standard agar-dilution assay, Streptococcus Group D X66; assay type: cell-based; details: Streptococcus Group D X66; agar dilution
Streptococcus Group 9960 = test: MIC, standard agar-dilution assay, Streptococcus Group 9960; assay type: cell-based; details: Streptococcus Group 9960; agar dilution
[10] = tested on: Haemophilus influenzae Holt; test: MIC, standard agar-dilution assay, Haemophilus influenzae Holt; assay type: cell-based; details: Haemophilus influenzae Holt; ampicillin-sensitive strain; agar dilution
[11] = tested on: Haemophilus influenzae R252; test: MIC, standard agar-dilution assay, Haemophilus influenzae R252; assay type: cell-based; details: Haemophilus influenzae R252; ampicillin-resistant strain; agar dilution
Staphylococcus aureus = test: MIC, broth-dilution microtiter test, Staphylococcus aureus; assay type: cell-based; details: broth-dilution microtiter
Description: (§1) The MIC's in Table X were obtained using conventional broth-dilution microtiter tests.

Streptococcus bovis 80 = test: MIC, broth-dilution microtiter test, Streptococcus bovis 80; assay type: cell-based; details: Streptococcus bovis 80; broth-dilution microtiter
Description: as §1

[12] = tested on: Pasteurella multocida 17E; test: MIC, broth-dilution microtiter test, Pasteurella multocida 17E; assay type: cell-based; details: Pasteurella multocida 17E; bovine isolate; broth-dilution microtiter
Description: as §1

[13] = tested on: Pasteurella multocida 60A; test: MIC, broth-dilution microtiter test, Pasteurella multocida 60A; assay type: cell-based; details: Pasteurella multocida 60A; avian isolate; broth-dilution microtiter
Description: as §1

[14] = tested on: Pasteurella hemolytica 22C; test: MIC, broth-dilution microtiter test, Pasteurella hemolytica 22C; assay type: cell-based; details: Pasteurella hemolytica 22C; broth-dilution microtiter
Description: as §1

Mycoplasma gallisepticum = test: MIC, broth-dilution microtiter test, Mycoplasma gallisepticum; assay type: cell-based; details: Mycoplasma gallisepticum; broth-dilution microtiter
Description: as §1

Mycoplasma synoviae = test: MIC, broth-dilution microtiter test, Mycoplasma synoviae; assay type: cell-based; details: Mycoplasma synoviae; broth-dilution microtiter
Description: as §1

Mycoplasma hyorhinis = test: MIC, broth-dilution microtiter test, Mycoplasma hyorhinis; assay type: cell-based; details: Mycoplasma hyorhinis; broth-dilution microtiter
Description: as §1

Mycoplasma hyopneumoniae = test: MIC, broth-dilution microtiter test, Mycoplasma hyopneumoniae; assay type: cell-based; details: Mycoplasma hyopneumoniae; broth-dilution microtiter
Description: as §1

[15] = tested on: Streptococcus pyogenes C203; test: In vivo protection of mice experimentally infected with S. pyogenes C203; details: mice, doses given 1 and 4 hours post-infection
Experimental: The C-20 modified derivatives of this invention have shown in vivo antimicrobial activity against experimentally-induced infections in laboratory animals. When two doses of test compound were administered to mice experimentally infected with S. pyogenes C203, the activity observed was measured as an ED50 value [effective dose in mg/kg to protect 50% of the test animals: see Warren Wick, et al., J. Bacteriol. 81, 233-235 (1961)].

Row | SMILES | MIC [1] [µg/mL] | MIC [2] [µg/mL] | MIC [3] [µg/mL] | MIC [4] [µg/mL] | MIC [5] [µg/mL] | MIC [6] [µg/mL] | MIC [7] [µg/mL] | MIC [8] [µg/mL] | MIC [9] [µg/mL] | MIC (Streptococcus Group 9960) [µg/mL] | MIC [10] [µg/mL] | MIC [11] [µg/mL] | MIC (Staphylococcus aureus) [µg/mL] | MIC (Streptococcus bovis 80) [µg/mL] | MIC [12] [µg/mL] | MIC [13] [µg/mL] | MIC [14] [µg/mL] | MIC (Mycoplasma gallisepticum) [µg/mL] | MIC (Mycoplasma synoviae) [µg/mL] | MIC (Mycoplasma hyorhinis) | further results
1 | CCC1OC(=O)CC(O)C(C)C(OC2OC(C)C(O)C(N(C)C)C2O)C(CCOc2ccc(Oc3ccccc3)cc2)CC(C)C(=O)C=CC(C)=CC1COC1OC(C)C(O)C(OC)C1OC (stereo not drawn) [Compound 47, 20-DH-20-O-(p-Phenoxyphenyl)desmycosin] | 0.5 (≈ 0.531 µM) | 0.5 (≈ 0.531 µM) | 0.5 (≈ 0.531 µM) | 0.25 (≈ 0.265 µM) | 0.5 (≈ 0.531 µM) | 0.25 (≈ 0.265 µM) | 0.25 (≈ 0.265 µM) | 0.25 (≈ 0.265 µM) | 0.5 (≈ 0.531 µM) | 1 (≈ 1.06 µM) | 16 (≈ 17 µM) | 16 (≈ 17 µM) | 0.78 (≈ 0.828 µM) | 0.09 (≈ 0.0955 µM) | 25 (≈ 26.5 µM) | 25 (≈ 26.5 µM) | 25 (≈ 26.5 µM) | < 0.05 | 0.09 (≈ 0.0955 µM) | 6.25 µg/mL (≈ 6.63 µM) | MIC (Mycoplasma hyopneumoniae): 3.12 µg/mL (≈ 3.31 µM); ED50, Oral [15]: 29 mg/kg × 2; ED50, Subcutaneous [15]: > 10 mg/kg × 2
2 | CCC1OC(=O)CC(O)C(C)C(OC2OC(C)C(OC(C)=O)C(N(C)C)C2OC(C)=O)C(CCOc2ccccc2)CC(C)C(=O)C=CC(C)=CC1COC1OC(C)C(O)C(OC)C1OC (stereo not drawn) [Compound 68, 20-DH-20-O-Phenyl-2',4'-di-O-acetyldesmycosin] | 0.5 (≈ 0.535 µM) | 0.5 (≈ 0.535 µM) | 0.5 (≈ 0.535 µM) | 0.5 (≈ 0.535 µM) | 0.5 (≈ 0.535 µM) | 0.12 (≈ 0.128 µM) | 0.5 (≈ 0.535 µM) | 0.5 (≈ 0.535 µM) | 4 (≈ 4.28 µM) | 8 (≈ 8.56 µM) | 32 (≈ 34.3 µM) | 16 (≈ 17.1 µM) | 0.39 (≈ 0.418 µM) | 6.25 (≈ 6.69 µM) | 25 (≈ 26.8 µM) | 25 (≈ 26.8 µM) | 25 (≈ 26.8 µM) | 0.39 (≈ 0.418 µM) | 3.12 (≈ 3.34 µM) | -- (Not active at 50 mcg/ml, the highest level tested) | MIC (Mycoplasma hyopneumoniae): 12.5 µg/mL (≈ 13.4 µM); ED50, Oral [15]: 16 mg/kg × 2; ED50, Subcutaneous [15]: 2.9 mg/kg × 2
3 | CCC1OC(=O)CC(O)C(C)C(OC2OC(C)C(O)C(N(C)C)C2O)C(CCOc2ccccc2)CC(C)C(=O)C=CC(C)=CC1COC1OC(C)C(O)C(O)C1OC (stereo not drawn) [Compound 58, 20-DH-20-O-Phenyllactenocin] | 0.25 (≈ 0.299 µM) | 0.25 (≈ 0.299 µM) | 0.25 (≈ 0.299 µM) | 0.25 (≈ 0.299 µM) | 0.25 (≈ 0.299 µM) | 0.25 (≈ 0.299 µM) | 0.06 (≈ 0.0718 µM) | 0.25 (≈ 0.299 µM) | 4 (≈ 4.78 µM) | 8 (≈ 9.57 µM) | 32 (≈ 38.3 µM) | 16 (≈ 19.1 µM) | 0.39 (≈ 0.466 µM) | 1.56 (≈ 1.87 µM) | 25 (≈ 29.9 µM) | 12.5 (≈ 15 µM) | 25 (≈ 29.9 µM) | 0.78 (≈ 0.933 µM) | 6.25 (≈ 7.48 µM) | 50 µg/mL (≈ 59.8 µM) | MIC (Mycoplasma hyopneumoniae): 6.25 µg/mL (≈ 7.48 µM); ED50, Oral [15]: 50 mg/kg × 2; ED50, Subcutaneous [15]: 3.2 mg/kg × 2
